Data on seven molecules can be found in BindingDB's records for doi:10.1021/jm00029a001 (Bristol-Myers Squibb Pharmaceutical Research Institute, 1994).

Chain of Endothelin-1 receptor (Rattus norvegicus) (P26684 whole entry, looked up): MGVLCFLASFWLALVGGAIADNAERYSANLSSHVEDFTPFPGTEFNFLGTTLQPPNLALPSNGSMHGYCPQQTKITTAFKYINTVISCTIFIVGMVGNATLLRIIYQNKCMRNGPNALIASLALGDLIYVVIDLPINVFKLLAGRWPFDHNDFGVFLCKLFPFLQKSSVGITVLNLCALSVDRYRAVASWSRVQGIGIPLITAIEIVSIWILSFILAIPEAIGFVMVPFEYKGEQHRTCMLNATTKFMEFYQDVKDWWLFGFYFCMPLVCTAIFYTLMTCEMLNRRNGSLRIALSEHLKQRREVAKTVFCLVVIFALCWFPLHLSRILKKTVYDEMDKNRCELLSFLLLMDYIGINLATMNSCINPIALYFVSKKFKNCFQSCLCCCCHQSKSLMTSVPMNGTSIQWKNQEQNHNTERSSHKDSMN

The first test has as its target Endothelin-1 receptor (Rattus norvegicus) (UniProt P26684). Kind of test: Ability to inhibit [125I]ET1 binding to vascular smooth muscle (vsm)- A10 cells.
The molecule `Cc1cc(NS(=O)(=O)c2ccc(N)cc2)on1` [4-Amino-N-(3-methyl-isoxazol-5-yl)-benzenesulfonamide] had an IC50 of 28 µM.

Take `Cc1noc(NS(=O)(=O)c2ccc(NCc3ccccc3)cc2)c1C` [4-Benzylamino-N-(3,4-dimethyl-isoxazol-5-yl)-benzenesulfonamide]: the IC50 came to 9.8 µM.

The molecule `Cc1noc(NS(=O)(=O)c2ccc(C#N)cc2)c1C` [4-Cyano-N-(3,4-dimethyl-isoxazol-5-yl)-benzenesulfonamide] yielded an IC50 above 32 µM.

In turn, `Cc1noc(NS(=O)(=O)c2ccc(N(C)C)cc2)c1C` [4-Dimethylamino-N-(3,4-dimethyl-isoxazol-5-yl)-benzenesulfonamide] displayed an IC50 of 84 µM.

`Cc1noc(NS(=O)(=O)c2cccc3c(CN(C)C)cccc23)c1C` [5-Dimethylaminomethyl-naphthalene-1-sulfonic acid (3,4-dimethyl-isoxazol-5-yl)-amide] had an IC50 of 2.8 µM. Against the preceding molecule, the IC50 is about 30-fold lower.

`CCCNc1ccc(S(=O)(=O)Nc2onc(C)c2C)cc1` [N-(3,4-Dimethyl-isoxazol-5-yl)-4-propylamino-benzenesulfonamide] registered an IC50 of 27 µM.

Molecular target in the next test: not listed separately
Kind of test: Selectivity for the ET-A receptor over ETB receptor was observed in rat cerebellar membranes.
As to `Cc1noc(NS(=O)(=O)c2cccc3c(N(C)C)cccc23)c1C` [BMS-182874], the Ki is above 200 µM.

In general, IC50 refers to the concentration needed to halve the response being measured. In general, Ki refers to the dissociation constant of the complex between target and ligand, obtained from inhibition or displacement. Low readings indicate tighter binding, high ones weaker binding.
